pIC50: −log10 of the molar value. Read-outs that look alike come from different tables or passages of the source.
Experiments:
[1] = Potency code of Table 2 (assay not stated)
[2] = In vitro metabolism with mouse liver microsomes; type: in vitro ADME; conditions: % remaining of compound after 60 min treatment with mouse liver microsomes
Method: In vitro metabolism of NUCC-176242 and NUCC-176248 were tested using mouse liver microsomes and a mouse S9 fraction. (See FIG. 9).

[3] = Plasma protein binding (mouse); type: in vitro ADME
[4] = system: CMV reporter; assay: CMV reporter assay (control reporter beside the Ebox reporter); type: cell-based
[5] = system: MYC transcriptional activity (c-Myc E-box-luciferase reporter, MycCap cells); assay: MYC E-box luciferase reporter assay; type: cell-based; conditions: Mus musculus, Myc-CaP
Method: To test the compounds, we evaluated the in silico hits in a MYC E-Box luciferase reporter assay to measure the effects of these compounds (referred to as Min-1 to Min-32) on MYC transcriptional activity. […] (See FIG. 2).
MycCap cells stably expressing luciferase with CMV promoter (MycCap-luc) or c-Myc E-box-luciferase reporter (MycCap Ebox-luc) were plated at 10000 cells per well in 96 well white-wall plate. Serial dilutions of 361 were treated next day. At 4 hours of treatment, luminescence signal was determined immediately after adding 150 μg/ml of Luciferin to the well. (See FIG. 12).

[6] = class symbols, read-out: Ebox reporter: IC50
[7] = given as numeric bound, read-out: Ebox reporter: IC50
[8] = class symbols, read-out: Eboc reporter IC50

Structure (SMILES) | Potency code [1] | MLM % at 60 min [2] | pIC50 [4] | pIC50 [5, 6] | also measured
COc1cccc(-c2c(-c3ccc(OCc4ccc(Cl)cc4)cc3O)n[nH]c2C(F)(F)F)c1 [NUCC-0198309] | ++++ (<10 ++++) | 74% |  |  | 
CCCCCCOc1ccc(-c2cc(C(F)(F)F)n[nH]2)c(O)c1-c1cc(C(F)(F)F)cc(C(F)(F)F)c1 [NUCC-0201196] | +++ (10-30 +++) | 66.6% |  |  | 
Cn1nc(C(F)(F)F)cc1-c1ccc(OCc2ccc(Cl)cc2)c(-c2cccc(C#N)c2)c1O [NUCC-0198399] | ++++ (<10 ++++) | 80.3% |  |  | 
Oc1c(-c2cc(C(F)(F)F)n[nH]2)ccc(OCCN2CCCC2)c1-c1cc(C(F)(F)F)cc(C(F)(F)F)c1 [NUCC-0201032] | + (>40 +) | 30.5% |  |  | fraction unbound [3]: < 0.001
Cn1nc(C(F)(F)F)cc1-c1ccc(OCc2ccc(Cl)cc2)c(-c2cc(C(F)(F)F)cc(C(F)(F)F)c2)c1O [NUCC-0196361] | ++++ (<10 ++++) | 72.9% |  |  | fraction unbound [3]: < 0.001
Oc1c(-c2cc(C(F)(F)F)[nH]n2)ccc(OCc2ccc(Cl)cc2)c1-c1ccccc1Cl [NUCC-0196363] | ++++ (<10 ++++) | 88.6% |  |  | 
Oc1cc(OCc2ccc(Cl)cc2)ccc1-c1n[nH]c(C(F)(F)F)c1Oc1ccccc1Cl [NUCC-0196342] | ++++ (<10 ++++) | 87.4% |  |  | 
CCCCCCOc1ccc(-c2cc(C(F)(F)F)nn2C)c(O)c1-c1cncc(C#N)c1 [NUCC-0201207] | +++ (10-30 +++) | 52.7% |  |  | 
Oc1c(-c2cc(C(F)(F)F)[nH]n2)ccc(Oc2ccc(Cl)cc2)c1-c1cc(C(F)(F)F)cc(C(F)(F)F)c1 [NUCC-0201223] | ++++ (<10 ++++) | 75.8% |  |  | 
CCCCOc1ccc(-c2cc(C(F)(F)F)n(C)n2)c(O)c1-c1cncc(C(F)(F)F)c1 [NUCC-0201209] | + (>40 +) | 10.3% |  |  | 
CCc1c(OCc2ccc(Cl)cc2)ccc(-c2cc(C(F)(F)F)n[nH]2)c1O [NUCC-0200739] | + (>40 +) | 46.4% |  |  | 
Cn1nc(C(F)(F)F)cc1-c1ccc(N(Cc2ccc(Cl)cc2)C(=O)c2ccccc2F)cc1O [NUCC-0202715] |  |  | < 4.30 | 5.00 to 5.30 | 
COc1ccc(C(=O)N(Cc2ccc(Cl)cc2)c2ccc(-c3cc(C(F)(F)F)nn3C)c(O)c2)cc1 [NUCC-0202717] |  |  | < 4.30 | 5.00 to 5.30 | 
Cn1nc(-c2ccc(N(Cc3ccc(Cl)cc3)C(=O)c3ccccc3Cl)cc2O)cc1C(F)(F)F [NUCC-0202702] |  |  | < 4.30 |  | pIC50 [5, 7]: < 4.30
CN(C(=O)c1ccc(-c2cc(C(F)(F)F)n[nH]2)c(O)c1)c1ccc(Cl)c(C(F)(F)F)c1 [NUCC-0202989] |  |  |  |  | pIC50 ([4]; class symbols): 4.30 to 5.00; pIC50 [5, 8]: 4.30 to 5.00
Cn1nc(-c2ccc(N(Cc3ccc(Cl)cc3)C(=O)c3cncc(C#N)c3)cc2O)cc1C(F)(F)F [NUCC-0202722] |  |  | < 4.30 |  | pIC50 [5, 7]: < 4.30
Cn1nc(-c2ccc(N(Cc3ccc(Cl)cc3)C(=O)c3ccnc(C(F)(F)F)c3)cc2O)cc1C(F)(F)F [NUCC-0202696] |  |  | < 4.30 |  | pIC50 [5, 7]: < 4.30
CN(C)C(=O)c1cc(-c2ccc(OCc3ccc(Cl)cc3)c(-c3ccc(Cl)c(C(F)(F)F)c3)c2O)n(C)n1 [NUCC-0202527] |  |  | < 4.30 | 4.30 to 5.00 | 
Oc1c(-c2cc(C(F)(F)F)n[nH]2)ccc(NCc2ccc(Cl)cc2)c1-c1ccc(Cl)c(C(F)(F)F)c1 [NUCC-0202433] |  |  | < 4.30 | 5.00 to 5.30 | 
Cn1nc(C(F)(F)F)cc1-c1c(Cl)cc(OCc2ccc(Cl)cc2)c(-c2ccc(Cl)c(C(F)(F)F)c2)c1O [NUCC-0202987] |  |  |  |  | pIC50 ([4]; class symbols): < 4.30; pIC50 [5, 8]: > 5.30

Structure (SMILES) | Potency code [1] | MLM % at 60 min [2] | pIC50 [4] | pIC50 [5, 6] | also measured
Cn1nc(-c2ccc(OC3CCNCC3)c(-c3ccc(Cl)c(C(F)(F)F)c3)c2O)cc1C(F)(F)F [NUCC-0202432] |  |  | 4.55 | 4.30 to 5.00 | 
Cn1nc(O)cc1-c1ccc(OCc2ccc(Cl)cc2)c(-c2ccc(Cl)c(C(F)(F)F)c2)c1O [NUCC-0202638] |  |  | < 4.30 | 4.30 to 5.00 | 
Cn1nc(-c2ccc(OCc3ccc(Cl)cc3)cc2O)c(Oc2ccc(Cl)c(F)c2)c1C(F)(F)F [NUCC-0202643] |  |  | < 4.30 | > 5.30 | 
CCOC(=O)c1cc(-c2ccc(OCc3ccc(Cl)cc3)c(-c3cc(C(F)(F)F)cc(C(F)(F)F)c3)c2O)n[nH]1 [NUCC-0200972] | + (>40 +) | 60.3% |  |  | fraction unbound [3]: < 0.001
CNC(=O)c1cc(-c2ccc(OCc3ccc(Cl)cc3)c(-c3ccc(Cl)c(C(F)(F)F)c3)c2O)nn1C [NUCC-0202529] |  |  | < 4.30 | 4.30 to 5.00 | 
Cn1nc(-c2ccc(N(Cc3ccc(Cl)cc3)C(=O)c3cncc(F)c3)cc2O)cc1C(F)(F)F [NUCC-0202697] |  |  | < 4.30 |  | pIC50 [5, 7]: < 4.30
Cn1nc(C(F)(F)F)cc1-c1ccc(N(Cc2ccc(Cl)cc2)C(=O)c2ccc(C(F)(F)F)cc2)cc1O [NUCC-0202713] |  |  | < 4.30 | 5.00 to 5.30 | 
COCCOc1ccc(-c2cc(C(F)(F)F)nn2C)c(O)c1-c1ccc(Cl)c(C(F)(F)F)c1 [NUCC-0202425] |  |  | < 4.30 | 4.30 to 5.00 | 
Cn1nc(C(F)(F)F)cc1-c1ccc(N(Cc2ccc(Cl)cc2)C(=O)c2ccnc(C(F)(F)F)c2)cc1O [NUCC-0202700] |  |  | < 4.30 | > 5.30 | 
Cn1nc(C(F)(F)F)cc1-c1ccc(OCc2ccc(Cl)cc2)cc1C=O [NUCC-0200976] | + (>40 +) | 21.8% |  |  | fraction unbound [3]: < 0.001
Oc1cc(OCc2ccc(Cl)cc2)ccc1-c1[nH]nc(C(F)(F)F)c1Oc1ccc(F)c(Cl)c1 [NUCC-0202636] |  |  | 4.39 | 5.00 to 5.30 | 
Cn1nc(-c2ccc(N(Cc3ccc(Cl)cc3)C(=O)c3ccccc3C(F)(F)F)cc2O)cc1C(F)(F)F [NUCC-0202719] |  |  | < 4.30 |  | pIC50 [5, 7]: < 4.30
COc1c(-c2ccc(OCc3ccc(Cl)cc3)cc2O)nn(C)c1C(F)(F)F [NUCC-0202652] |  |  | < 4.30 |  | pIC50 [5, 7]: < 4.30
Oc1c(-c2cc(C(F)(F)F)n[nH]2)ccc(OCc2ccc(Cl)cc2)c1Oc1ccc(F)cn1 [NUCC-0202435] |  |  | < 4.30 | 4.30 to 5.00 | 
Cn1nc(C(F)(F)F)cc1-c1cc(Cl)c(OCc2ccc(Cl)cc2)c(-c2ccc(Cl)c(C(F)(F)F)c2)c1O [NUCC-0202648] |  |  | < 4.30 | > 5.30 | 
Cn1nc(C(F)(F)F)cc1-c1ccc(OCc2ccc(Cl)cc2)c(-c2ccc(Cl)c(C(F)(F)F)c2)c1F [NUCC-0202641] |  |  | < 4.30 |  | pIC50 [5, 7]: < 4.30
CN(C(=O)c1ccc(-c2cc(C(F)(F)F)n(C)n2)c(O)c1)c1ccc(Cl)c(C(F)(F)F)c1 [NUCC-0202991] |  |  |  |  | pIC50 ([4]; class symbols): < 4.30; pIC50 [5, 8]: 4.30 to 5.00
Cn1nc(C(F)(F)F)cc1-c1ccc(OCc2ccc(Cl)cc2)c(-c2ccc(Cl)c(C(F)(F)F)c2)n1 [NUCC-0202640] |  |  | < 4.30 |  | pIC50 [5, 7]: < 4.30
CNC(=O)c1cc(-c2ccc(OCc3ccc(Cl)cc3)c(-c3ccc(Cl)c(C(F)(F)F)c3)c2O)n(C)n1 [NUCC-0202635] |  |  | < 4.30 | 4.30 to 5.00 | 

— patent publication US20200392116A1, “SUBSTITUTED HETEROCYCLES AS c-MYC TARGETING AGENTS” (NORTHWESTERN UNIVERSITY, priority 2019, published 2020)
